Results taken from US20080085264A1, “METHODS FOR ENHANCING STEM CELL ENGRAFTMENT DURING TRANSPLANTATION” (priority 2003, published 2008).

Tests used:
BoyJ recipient mice [1] = experiment: Short-term homing of donor Sca-1+lin- cells to recipient bone marrow; assay type: in vivo, mouse
Description: Control C57BL/6 (CD45.2^+), CD26 inhibitor treated C57BL/6 (CD45.2^+), or CD26^−/− (CD45.2^+) sorted Sca-1^+lin^− or LD donor BM cells were transplanted by tail-vein injection into lethally irradiated (1100 cGy split dose) congenic BoyJ (CD45.1^+) female recipient mice (Haneline L S, et al. Blood. 1999; 94:1-8.) Contribution of Sca^+lin^− donor cells in the context of Sca-1^+lin^− recipient cells was calculated by flow cytometric analysis of cells found in the recipient mouse BM by measuring CD45.1+ and CD45.2^+ on Sca-1^+lin^− LD cells isolated from the recipient mice 24 hours post transplant. […] Comparisons between treatment groups were made using a two-tailed Student's t-test and data was plotted as mean (M)±standard error of the mean (SEM).

DBA/2 mice [2] = experiment: G-CSF induced mobilization of HSC/HPC in DBA/2 mice (progenitor cell assays of peripheral blood); assay type: in vivo, mouse; details: without G-CSF
C57BL/6 mice [3] = experiment: G-CSF induced mobilization of HSC/HPC in C57BL/6 mice (progenitor cell assays of peripheral blood); assay type: in vivo; details: 5 μmol/mouse 2×/day s.c. alone, without G-CSF
C57BL/6 mice [4] = experiment: as above; assay type: in vivo, mouse; details: for effect of scrambled peptides on mobilization: C57BL/6, data not shown
Description: (§1) Mobilization was achieved by treating mice with 2.5 μg (micrograms) G-CSF/mouse 2×/day s.c. for 2 days (Broxmeyer H E, et al. J Exp Med. 1999; 189:1987-1992). Mice simultaneously treated with a specific CD26 inhibitor also underwent treatment with either 5 μmol Diprotin A/mouse 2×/day s.c. for 2 days or 5 μmol Val-Pyr/mouse 2×/day s.c. for 2 days. Diprotin A was obtained commercially (Peptides International, Louisville, Ky.) and Val-Pyr was obtained as a gift from Nicolai Wagtmann (Novo Nordisk, Denmark). After either G-CSF or G-CSF plus CD26 inhibitor treatment peripheral blood cells were collected and total cellular nuclearity was measured and progenitor cell assays were performed using total peripheral blood cells.
(§2) One-hundred thousand mouse G-CSF mobilized peripheral blood cells were plated in triplicate for colony formation by CFU-GM, BFU-E, and CFU-GEMM and scored at 7 days incubation as previously described (Cooper S, Broxmeyer H E. Measurement of interleukin-3 and other hematopoietic growth factors, such as GM-CSF, G-CSF, M-CSF, erkythropoietin and the potent co-stimulating cytokines steel factor and FLt-3 ligand. In: Coligan J E K A, Margulies D H, Shevach E M, Strober E, Coico R, ed. Current protocols in immunology. New York: John Wiley & Sons; 1996:6.4.1-6.4.12). Cells were plated for colony formation in 1% methylcellulose culture medium containing 30% FBS, 1 U/ml recombinant(r) human Epo, 0.1 mM Hemin, 5% Pokeweed Mitogen Spleen Conditioned Media (PWMSCM), and 50 ng/ml rmouse Steel Factor (=Stem Cell Factor, SCF).

DBA/2 mice [5] = experiment: G-CSF induced mobilization of HSC/HPC in DBA/2 mice (progenitor cell assays of peripheral blood); assay type: in vivo, mouse
Description: as §1, §2

BoyJ irradiated mice = experiment: Competitive repopulation assay; assay type: in vivo, mouse; details: six months post transplant, 5×10^5 or 2.5×10^5 donor cells vs 5×10^5 competitor BoyJ cells
From the text: Donor LDBM cells (5×10^5) from representative mice from each test group were transplanted into lethally irradiated BoyJ mice (expressing CD45.1) Quantitative contribution to chimerism was obtained 2-6 months post-transplantation in the same manner described for long-term engraftment assays.
Eight week old female recipient mice were lethally irradiated (1100 cGy split dose) prior to transplantation as previously described (Haneline L S, et al. Blood. 1999; 94:1-8). Limiting dilutions of donor LD BM cells (5×10^5, 2.5×10^5, 1.25×10^5, and 0.625×10^5 cells) from control C57Bl/6 mice, CD26-inhibitor treated LD BM cells, or untreated LD BM cells from CD26^−/− mice (all expressing CD45.2) are co-transplanted with a constant number (5×10^5) of pooled competitive BM cells from congenic BoyJ mice (expressing CD45.1), into BoyJ irradiated mice. To determine quantitatively the relative cell contribution to chimerism of each test cell population tail-vein blood samples were obtained post-transplantation each month for three months and CD45.1 and CD45.2 was measured by flow-cytometry. Cells were divided into CD26 inhibitor (either Diprotin A or Val-Pyr) treated or untreated groups obtained from normal C57BL/6 mice and untreated cells obtained from CD26^−/− mice. […]

BoyJ recipient mice [6] = experiment: Non-competitive long-term engraftment; assay type: in vivo, mouse; details: six months post transplant, P<0.05, n=5
Description: Control C57BL/6 (CD45.2^+) or CD26 inhibitor treated C57BL/6 (CD45.2^+) LD donor BM cells were transplanted by tail-vein injection into lethally irradiated (1100 cGy split dose) congenic BoyJ (CD45.1^+) female recipient mice (Haneline L S, et al. Blood. 1999; 94:1-8). Contribution of donor cells was obtained by measuring the number of donor and residual recipient lymphocytes in the peripheral blood. The % donor contribution was calculated by flow cytometric analysis of peripheral blood lymphocytes found in the recipient mouse peripheral blood by measuring CD45.1^+ and CD45.2^+ on cells isolated from the recipient mice 1-6 months post transplant. No less than five mice from each recipient group were analyzed, each one having received a transplant of 5×10^5 pooled LD donor BM cells. Comparisons between treatment groups were made using a two-tailed Student's t-test and data was plotted as mean (M)±standard error of the mean (SEM).

CD26-/- mice = experiment: G-CSF induced mobilization of progenitors in CD26-/- mice; assay type: in vivo, mouse; details: CD26-/- mice on C57Bl/6 background
Description: as §1
One-hundred thousand mouse G-CSF mobilized peripheral blood cells were plated in triplicate for colony formation by CFU-GM, BFU-E, and CFU-GEMM and scored at 7 days incubation as previously described (Cooper S, Broxmeyer H E. Measurement of interleukin-3 and other hematopoietic growth factors, such as GM-CSF, G-CSF, M-CSF, erkythropoietin and the potent co-stimulating cytokines steel factor and FLt-3 ligand. In: Coligan J E K A, Margulies D H, Shevach E M, Strober E, Coico R, ed. Current protocols in immunology. New York: John Wiley & Sons; 1996:6.4.1-6.4.12). […]

[7] = inhibitor 5 μmol/mouse 2×/day s.c. during G-CSF mobilization, C57BL/6
[8] = inhibitor treatment during G-CSF mobilization
[9] = 2.5 μg G-CSF/mouse 2×/day s.c., C57BL/6

## c1cc(CN2CCCNCCNCCCNCC2)ccc1CN1CCCNCCNCCCNCC1 [AMD3100]
BoyJ recipient mice [1]; 10×10^6 LDBM donor cells treated with AMD3100 for 15 minutes prior to transplantation
  effect on the increase in homing efficiency generated by inhibition or loss of CD26: reversed the increase in homing efficiency
BoyJ recipient mice [1]; AMD3100 treatment alone, no CD26 inhibitor
  homing efficiency compared to control LDBM cells: reduction in homing efficiency

## CC(C)[C@H](N)C(=O)N1CCCC1 [Val-Pyr, Valine-Pyrrolidide]
DBA/2 mice [2]
  effect on the mobilization of progenitors, inhibitor alone: little or no effect
C57BL/6 mice [3]
  effect on the mobilization of progenitors, inhibitor alone: little or no effect
C57BL/6 mice [4]; [7]
  reduction in BFU-E compared to G-CSF alone: 22%
  reduction in CFU-GEMM compared to G-CSF alone: 62%
  reduction in CFU-GM compared to G-CSF alone: 55%
DBA/2 mice [5]; [8]
  reduction in BFU-E compared to G-CSF alone: 49%
  reduction in CFU-GEMM compared to G-CSF alone: 56%
  reduction in CFU-GM compared to G-CSF alone: 52%
BoyJ irradiated mice
  donor contribution to chimerism: increased donor contribution to chimerism
BoyJ recipient mice [6]
  donor cell contribution to the formation of peripheral blood leukocytes: Increased donor cell contribution
BoyJ recipient mice [1]; donor LDBM unit treated prior to transplant, P<0.01, n=6
  short-term homing of donor cells: significant increase in short-term homing

## Ile-Ile-Pro
C57BL/6 mice [4]
  effect of scrambled peptides on mobilization: no effect

## Pro-Ile-Ile
C57BL/6 mice [4]
  effect of scrambled peptides on mobilization: no effect

B1: G-CSF: cytokine used to induce mobilization of HSC/HPC (protein, UniProt P09919 31-207, looked up)
Granulocyte …: TPLGPASSLPQSFLLKCLEQVRKIQGDGAALQEKLVSECATYKLCHPEELVLLGHSLGIPWAPLSSCPSQALQLAGCLSQLHSGLFLYQGLLQALEGISPELGPTLDTLQLDVADFATTIWQQMEELGMAPALQPTQGAMPAFASAFQRRAGGVLVASHLQSFLEVSYRVLRHLAQP
C57BL/6 mice [4]; [9]
  BFU-E mobilized to peripheral blood: 1027±107 BFU-E/ml
  CFU-GEMM mobilized to peripheral blood: 442±35 CFU-GEMM/ml
  CFU-GM mobilized to peripheral blood: 2348±249 CFU-GM/ml
DBA/2 mice [5]; 2.5 μg G-CSF/mouse 2×/day s.c.
  BFU-E mobilized to peripheral blood: 2219±141 BFU-E/ml
  CFU-GEMM mobilized to peripheral blood: 1186±163 CFU-GEMM/ml
  CFU-GM mobilized to peripheral blood: 8145±1038 CFU-GM/ml
CD26-/- mice
  mobilization of progenitor cells by G-CSF: low, but significant, mobilization
